In patent publication US20210386367A1, “DEVICES AND SYSTEMS FOR GASTROINTESTINAL MICROBIOME DETECTION AND MANIPULATION” (Progenity, Inc., priority 2018, published 2021):
In brackets after ≈: the same amount, converted by molar mass. Where two headings read alike, the source gives them in different places.

Assays:
[1] = tested on: Bacteroides fragilis; test: Agar dilution MIC, 30 clinical isolates; format: cell-based
[2] = tested on: Bacteroides non fragilis; test: Agar dilution MIC, 29 clinical isolates; format: cell-based, Bacteroides spp.
[3] = tested on: S. pyogenes ATCC 49399; test: Broth microdilution MIC (time-kill study); format: cell-based, Streptococcus pyogenes
[4] = tested on: B. fragilis ATCC 25285; test: Broth microdilution MIC (time-kill study); format: cell-based, Bacteroides fragilis
[5] = tested on: E. coli ATCC 35218; test: Time-kill assay; format: cell-based, Escherichia coli; details: 2×, 4×, 8× MIC; 2, 6, 24 hr
[6] = tested on: three isolates each of E. coli, Streptococcus spp. and Bacteroides spp.; test: Time-kill assay, overall summary; format: cell-based
Protocol: MIC values were determined by broth microdilution in accordance with guidelines from the Clinical and Laboratory Standards Institute (CLSI; (1) “Methods for Dilution Antimicrobial Susceptibility Tests for Bacteria That Grow Aerobically; Approved Standard; 11th ed.,” CLSI standard M07, 2018; (2) “Performance Standards for Antimicrobial Susceptibility Testing; 28th ed.,” CLSI supplement M100, 2018).
During the time-kill study, the test flasks were sampled at 2, 6, and 24 hr for determination of viable counts using the track dilution method as described above. Bacteroides was also sampled at 48 hr. All E. coli plates were incubated for 20-24 hr at 35° C., Streptococci for 20-24 hr at 35° C. in a CO2 incubator, and Bacteroides for approximately 48 hr at 35° C. in the anaerobe chamber. Colonies were counted manually, and the CFU/mL was determined from the average count of the duplicate plates, followed by the calculation of the log10 CFU/mL. The limit of detection for the assay was 50 CFU/mL.

[7] = tested on: Bacteroides spp. (B. fragilis ATCC 25285, B. vulgatus, B. ovatus MMX 3503); test: Agar dilution MIC (spontaneous mutation study; strain in conditions); format: cell-based
[8] = tested on: Streptococcus spp. spontaneous mutants; test: organism not typed; format: cell-based
Procedure, shortened: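 Spontaneous mutants from drug selection plates were tested by CLSI broth microdilution in MHB II with two-fold serial drug dilutions. Inoculum was about 5×10^5 CFU/mL, incubated aerobically at 35° C. for 18-20 hr. MIC was the lowest concentration inhibiting visible growth.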

[9] = tested on: Bacteroides spp. spontaneous mutants; test: Broth microdilution MIC of spontaneous mutants; format: cell-based
Procedure, shortened: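 Isolates from drug selection plates were subcultured on agar containing drug at the selection concentration and identified by MALDI, then MIC was determined by CLSI broth microdilution (M100-S28) with serial two-fold dilutions. Plates were pre-reduced 1 h in an anaerobic chamber; final inoculum ~1×10^6 CFU/mL.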

[10] = 30 Bacteroides fragilis clinical isolates
[11] = 29 Bacteroides non-fragilis clinical isolates
[12] = colonies selected at 4× and 8× the MIC

## CO[C@H]1/C=C/O[C@@]2(C)Oc3c(C)c(O)c4c(O)c(c5c(nc6cc(C)ccn65)c4c3C2=O)NC(=O)/C(C)=C\C=C\[C@H](C)[C@H](O)[C@@H](C)[C@@H](O)[C@@H](C)[C@H](OC(C)=O)[C@@H]1C [rifaximin]
[1]
  MIC50: 0.25 µg/mL (≈ 0.318 µM)
  MIC90: 0.25 µg/mL (≈ 0.318 µM)
  relative activity among drugs tested: meropenem and rifaximin had similar activity
[1]; [10]
  MIC50: 0.25 µg/mL (≈ 0.318 µM)
  MIC90: 0.25 µg/mL (≈ 0.318 µM)
[1]; modal MIC, 30 Bacteroides fragilis clinical isolates
  Mode: 0.25 µg/mL
[2]
  MIC50: 0.12 µg/mL (≈ 0.153 µM)
  MIC90: 0.5 µg/mL (≈ 0.636 µM)
  relative activity among drugs tested: most active
[2]; [11]
  MIC50: 0.12 µg/mL (≈ 0.153 µM)
  MIC90: 0.5 µg/mL (≈ 0.636 µM)
  MIC range: 0.03 to 0.5 µg/mL
[2]; modal MIC, 29 Bacteroides non-fragilis clinical isolates
  Mode: 0.12 µg/mL
[3]; S. pyogenes ATCC 49399
  MIC: 0.12 µg/mL (≈ 0.153 µM)
[3]; broth microdilution
  MIC: 0.12 µg/mL (≈ 0.153 µM)
[4]; B. fragilis MMX 123 ATCC 25285
  MIC: 0.5 µg/mL (≈ 0.636 µM)
[4]; broth microdilution
  MIC: 0.05 µg/mL (≈ 0.0636 µM)
[5]
  time-kill kinetics outcome (bactericidal = ≥3 log reduction in CFU per mL): bacteriostatic at 8× the MIC with regrowth at 24 hr for both 2× and 4× the MIC
[6]
  overall time-kill outcome: bacteriostatic activity and regrowth was typically observed
[7]; B. fragilis ATCC 25285
  Agar MIC: 0.25 µg/mL
[7]; B. ovatus MMX 3503
  Agar MIC: 0.5 µg/mL
[7]; B. vulgatus ATCC 8482
  Agar MIC: 0.12 µg/mL
[8]; S. agaloctiae ATCC 13813, selected on rifaximin 4X MIC, Colony A
  MIC: >8 µg/mL
[8]; S. agaloctiae ATCC 13813, selected on rifaximin 4X MIC, Colony B
  MIC: >8 µg/mL
[8]; S. agaloctiae ATCC 13813, selected on rifaximin 8X MIC, Colony A
  MIC: >8 µg/mL
[8]; S. agaloctiae ATCC 13813, selected on rifaximin 8X MIC, Colony B
  MIC: >8 µg/mL
[8]; S. agaloctiae ATCC 13813 Parent
  MIC: 0.12 µg/mL (≈ 0.153 µM)
[8]; S. pneumoniae ATCC 49619, selected on rifaximin 4X MIC, Colony A
  MIC: >8 µg/mL
[8]; S. pneumoniae ATCC 49619, selected on rifaximin 4X MIC, Colony B
  MIC: >8 µg/mL
[8]; S. pneumoniae ATCC 49619, selected on rifaximin 8X MIC, Colony A
  MIC: >8 µg/mL
[8]; S. pneumoniae ATCC 49619, selected on rifaximin 8X MIC, Colony B
  MIC: >8 µg/mL
[8]; S. pneumoniae ATCC 49619 Parent
  MIC: 0.015 µg/mL (≈ 0.0191 µM)
[8]; S. pyogenes ATCC 49399, selected on rifaximin 4X MIC, Colony A
  MIC: >8 µg/mL
[8]; S. pyogenes ATCC 49399, selected on rifaximin 4X MIC, Colony B
  MIC: >8 µg/mL
[8]; S. pyogenes ATCC 49399, selected on rifaximin 8X MIC, Colony A
  MIC: >8 µg/mL
[8]; S. pyogenes ATCC 49399, selected on rifaximin 8X MIC, Colony B
  MIC: >8 µg/mL
[8]; S. pyogenes ATCC 49399 Parent
  MIC: 0.06 µg/mL (≈ 0.0763 µM)
[8]; [12]
  broth microdilution MIC of selected colonies relative to parent strain: several-fold higher
[9]; B. fragilis ATCC 25285, selected on rifaximin 4X MIC, Colony A
  MIC: >64 µg/mL
[9]; B. fragilis ATCC 25285, selected on rifaximin 4X MIC, Colony B
  MIC: 64 µg/mL
[9]; B. fragilis ATCC 25285, selected on rifaximin 8X MIC, Colony A
  MIC: >64 µg/mL
[9]; B. fragilis ATCC 25285, selected on rifaximin 8X MIC, Colony B
  MIC: >64 µg/mL
[9]; B. fragilis ATCC 25285 Parent
  MIC: 0.12 µg/mL
[9]; B. ovatus MMX 3503, selected on rifaximin 4X MIC, Colony A
  MIC: >64 µg/mL
[9]; B. ovatus MMX 3503, selected on rifaximin 4X MIC, Colony B
  MIC: >64 µg/mL
[9]; B. ovatus MMX 3503, selected on rifaximin 8X MIC, Colony A
  MIC: >64 µg/mL
[9]; B. ovatus MMX 3503, selected on rifaximin 8X MIC, Colony B
  MIC: >64 µg/mL
[9]; B. ovatus MMX 3503 Parent
  MIC: 0.25 µg/mL
[9]; B. vulgatus ATCC 8482, selected on ceftriaxone 4X MIC, Colony A
  MIC: 0.06 µg/mL
[9]; B. vulgatus ATCC 8482, selected on ceftriaxone 4X MIC, Colony B
  MIC: 0.12 µg/mL
[9]; B. vulgatus ATCC 8482, selected on rifaximin 4X MIC, Colony A
  MIC: 32 µg/mL
[9]; B. vulgatus ATCC 8482, selected on rifaximin 4X MIC, Colony B
  MIC: 64 µg/mL
[9]; B. vulgatus ATCC 8482, selected on rifaximin 8X MIC, Colony A
  MIC: >64 µg/mL
[9]; B. vulgatus ATCC 8482, selected on rifaximin 8X MIC, Colony B
  MIC: >64 µg/mL
[9]; B. vulgatus ATCC 8482 Parent (Table 50)
  MIC: 0.06 µg/mL
[9]; B. vulgatus ATCC 8482 Parent (Table 54)
  MIC: 0.06 µg/mL
[9]; [12]
  broth microdilution MIC of selected colonies relative to parent strain: several-fold higher
